Results published in patent publication EP0791603A2, “Pure somatostatin antagonist and methods of use thereof” (American Cyanamid Company, priority 1996, dated 1997).
Positions of bridges follow the written chain, without caps; N, C: chain ends. Non-standard residues stand in square brackets, D forms with d. Residues, ends and D or L forms follow the SMILES beside them. Phe(4-NO2) = N[C@@H](Cc1ccc([N+](=O)[O-])cc1)C(=O)O; dPhe(4-NO2) = N[C@H](Cc1ccc([N+](=O)[O-])cc1)C(=O)O; 2Nal = N[C@@H](Cc1ccc2ccccc2c1)C(=O)O; Orn = NCCC[C@H](N)C(=O)O

Columns and labels:
SSTR2 = SSTR2 (Rattus norvegicus, UniProt P30680); test: Competitive binding, displacement of [125I]Tyr11 S-14; set-up: expressed in transfected cells; conditions: [125I]Tyr11 S-14 250 pM, room temperature 2 hours; for IC50: membrane protein, read-out: SSTR2 Binding Affinity IC50; for Ki: calculated by Cheng and Prusoff, read-out: SSTR2 Binding Affinity Ki
Method: In this evaluation the concentration of test compound required to displace 50% of somatostatin, SRIF, from the SRIF receptor subtypes expressed in mammalian cells is measured, i.e., the concentration required to inhibit 50% of [^125I] Tyr^11 S-14 (Amersham) (IC50) from binding to the SRIF receptor subtypes.
Radiolabeled SRIF is mixed with pituitary cells, the test compound is added, the mixture is incubated and the radioactivity is measured as compared to control. Reduced radioactivity indicates successful competitive binding of the test compound to the pituitary cell receptor. The concentration of the test compound in nanomolar units required to displace 50% of SRIF from the pituitary cell receptor is calculated and reported in Table II as the IC50 value. Also calculated is the inhibitory constant, Ki.
Tyr^11S-14 (150,000 cpm at 2000 Ci/mmole, 250 pM final concentration). The binding reaction is initiated by adding 2-60µg of membrane protein in a 170 µL volume. Final reaction volume is 200 µl/well. All incubations are carried out at room temperature for 2 hours. Free radioligand is separated from bound ligand by rapid filtration through a glass fiber filter (IH-201-HA) using an Inotech cell harvester. The filter is then washed several times with cold (4°C) binding buffer lacking BSA and protease inhibitors prior to counting in an LKB gamma master counter (78% efficiency). Whatman GFC filters presoaked in 0.3% polyethylenimine (to decrease background) are used.
The IC50 values and Ki values are calculated using the well-known methods described by Y. Cheng and W. H. Prusoff, Biochem. Pharmacol. 22, 3099-3108 (1973), incorporated herein by reference thereto.

[1] = target: T1, rat somatostatin receptor subtype 2 (SSTR2) (Rattus norvegicus, UniProt P30680); test: Yeast assay, somatostatin antagonist activity (zone of no growth in presence of S-14); type: cell-based; set-up: key: 1 is minimum antagonist activity; 5 is maximum antagonist activity; -: When no activity is observed, the result is indicated by a dash; conditions: rating on a scale of 1-5 from zone of no growth; 5µL of 1 mg/mL S-14 added to each plate; S. Cerevisiae LY364
T1 construct: expressed in transfected cells; host or cells: Saccharomyces cerevisiae LY364
Method: To evaluate the somatostatin antagonist activity of a test compound, the above procedure is followed except on day 3, 5µL of 1 mg/mL of somatostatin, S-14, is added to each plate, before applying the test compound. If the test compound is an antagonist of somatostatin, then a zone of no growth will appear within the cell growth zone. This zone of no growth is measured and the test compound is given an antagonist rating on a scale of 1-5 wherein 1 is minimum antagonist activity and 5 is maximum antagonist activity.
The results are shown in Table I. When no activity is observed, the result is indicated by a dash.
(§1) • 1) Inoculate 2 mL SCD-ura-trp liquid medium in Falcon 2051 tube with a single colony taken from a plate containing LY364 (MATa ura3-52 leu2 his3 trp1 lys2 ade2 far1:: LYS2 fus1:: FUS1-HIS3 gpal::hisG sst2::ADE2 bearing the SSTR2 expression plasmid, pJH2, and the G protein expression plasmid, pLP82)cells. • 2) Incubate overnight in a roller drum at 30°C.
(§2) Day 2. • 1) Harvest the cells by centrifugation (3 krpm, 5 min, room temp). • 2) Re-suspend with 5 mL of sterile water. • 3) Harvest again by centrifugation. • 4) Re-suspend in 5 mL SCL-ura-trp liquid medium. • 5) Incubate for 6 hours in a roller drum at 30°C. • 6) Harvest the cells again by centrifugation. • 7) Re-suspend in 5 mL SCG-ura-trp liquid medium. • 8) Incubate overnight in a roller drum at 30°C.
(§3) Day 3. • 1) Autoclave SCG-ura-trp-his pH 6.8 agar medium. • 2) Cool to 55°C in water bath. • 3) Add 1 mL of LY364 culture to 1 liter of agar medium. • 4) Stir vigorously for 1 min. • 5) Pour 150 mL each into five 500 cm^2 plates. • 6) Allow to cool on level surface. • 7) Apply test compound.
(§4) On day 3, add 5µL 1 mg/mL S-14 to each plate. Day 5. Begin checking plates for growth around applied compounds. Day 7. Growth in response to somatostatin should be readily observable. Rate extent of growth or inhibition of growth according to rating scale described hereinabove.

[2] = target: T1, rat somatostatin receptor subtype 2 (SSTR2); test: Yeast assay, somatostatin agonist activity (growth zone of modified yeast cells on histidine-free agar); type: cell-based; conditions: rating on a scale of 1-5 from zone of growing cells; S. Cerevisiae LY364
Method: In this evaluation, yeast cells which have been specifically modified to functionally express rat somatostatin receptor subtype 2 (SSTR2) on their cell surfaces are used. S. Cerevisiae LY364 cells are plated in a standard synthetic agar medium which lacks histidine. In the absence of a somatostatin receptor agonist, the auxotrophic (his3) cells are unable to grow. In the presence of somatostatin, or a somatostatin agonist, the expression of an enzyme (His3p: imidazole-glycerol phosphate dehydratase) which is essential for histidine biosynthesis is induced. The cells become competent to produce histidine, resulting in a zone of growing cells around the applied test compound. The zone is measured and the test compound is given an agonist rating on a scale of 1-5 wherein 1 is minimum agonist activity and 5 is maximum agonist activity.
SCD-ura-trp: • 1) To 500 mL water add: • 1.7 g YNB without amino acids and (NH4)2SO4 • 5.0 g (NH4)2SO4 • 0.7 g CSM-ura-trp • 2) To additional 500 mL water add: 20 g Dextrose • 3) Autoclave separately. Mix.
SCL-ura-trp: • 1) To 500 mL water add: • 1.7 g YNB without amino acids and (NH4)2SO4 • 5.0 g (NH4)2SO4 • 0.7 g CSM-ura-trp • 2) To additional 500 mL water add: 30 mL Lactic Acid • 3) Autoclave separately. Mix.
SCG-ura-trp: • 1) To 500 mL water add: • 1.7 g YNB without amino acids and (NH4)2SO4 • 5.0 g (NH4)2SO4 • 0.7 g CSM-ura-trp • 2) To additional 500 mL water add: 30 g D-Galactose • 3) Autoclave separately. Mix.
SCG-ura-trp-his agar medium, pH 6.8: • 1) To 500 mL water add: • 1.7 g YNB without amino acids and (NH4)2SO4 • 5.0 g (NH4)2SO4 • 0.7 g CSM-ura-trp-his • Stirring Bar • 2) Adjust pH to 6.8-6.9 by dropwise addition of conc. NH4OH • 3) To additional 500 mL water add: 30 g D-Galactose, 20 g Agar • 4) Autoclave separately. • 5) Stir to mix thoroughly. • 6) Equilibrate temperature to 55°C. YNB without amino acids and (NH4)2SO4, CSM-ura-trp, and CSM-ura-trp-his are manufactured by Bio101. Ammonium sulfate ((NH4)2SO4), Dextrose (D-glucose), D-Galactose, and Lactic Acid are manufactured by Sigma.
as §1, §2, §3, §4

Chain of SSTR2 (P30680 whole entry): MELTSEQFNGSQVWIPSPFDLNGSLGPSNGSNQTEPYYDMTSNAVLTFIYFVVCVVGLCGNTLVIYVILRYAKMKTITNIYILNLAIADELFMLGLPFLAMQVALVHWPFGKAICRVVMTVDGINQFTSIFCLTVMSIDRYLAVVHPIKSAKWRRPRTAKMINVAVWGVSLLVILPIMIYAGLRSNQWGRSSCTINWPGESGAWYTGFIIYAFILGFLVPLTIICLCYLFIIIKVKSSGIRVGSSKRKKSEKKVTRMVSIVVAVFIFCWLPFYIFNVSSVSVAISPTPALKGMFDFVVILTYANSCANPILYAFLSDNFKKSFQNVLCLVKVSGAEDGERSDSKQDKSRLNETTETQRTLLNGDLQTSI
T1 sequence (P30680 whole entry): as above

Compound | IC50 (SSTR2) [nM] | Ki (SSTR2) [nM] | Yeast Assay Antagonist [1] | Yeast Assay Agonist [2]
C[C@@H](O)[C@@H]1NC(=O)[C@H](CCCCN)NC(=O)[C@@H](Cc2c[nH]c3ccccc23)NC(=O)[C@H](Cc2ccc(O)cc2)NC(=O)[C@H](NC(=O)[C@@H](N)Cc2ccc(I)cc2)CSSC[C@@H](C(=O)N[C@@H](Cc2ccc(O)cc2)C(N)=O)NC1=O | 0.6 | 0.26 |  | 
CC(=O)N[C@@H](Cc1ccc(I)cc1)C(=O)N[C@@H]1CSSC[C@@H](C(=O)N[C@@H](Cc2ccc(O)cc2)C(N)=O)NC(=O)[C@H]([C@@H](C)O)NC(=O)[C@H](CCCCN)NC(=O)[C@@H](Cc2c[nH]c3ccccc23)NC(=O)[C@H](Cc2ccc(O)cc2)NC1=O |  |  | 1 | -
NCCCC[C@@H]1NC(=O)[C@@H](Cc2c[nH]c3ccccc23)NC(=O)[C@H](Cc2ccc(O)cc2)NC(=O)[C@H](NC(=O)[C@@H](N)Cc2ccc([N+](=O)[O-])cc2)CSSC[C@@H](C(=O)N[C@@H](Cc2ccc3ccccc3c2)C(N)=O)NC(=O)[C@H](CO)NC1=O (H-[Phe(4-NO2)][dC]Y[dW]KSC[2Nal]-NH2; disulfide 2-7) | 10 | 4.44 |  | 
CC(C)[C@@H]1NC(=O)[C@H](CCCN)NC(=O)[C@@H](Cc2c[nH]c3ccccc23)NC(=O)[C@H](Cc2ccc(O)cc2)NC(=O)[C@H](NC(=O)[C@@H](N)Cc2ccc([N+](=O)[O-])cc2)CSSC[C@@H](C(=O)N[C@@H](Cc2ccc(O)cc2)C(N)=O)NC1=O (H-[Phe(4-NO2)][dC]Y[dW][Orn]VCY-NH2; disulfide 2-7) | 113 | 50.2 |  | 
CC(C)[C@@H]1NC(=O)[C@H](CCCCN)NC(=O)[C@@H](Cc2c[nH]c3ccccc23)NC(=O)[C@H](Cc2ccc(O)cc2)NC(=O)[C@H](NC(=O)[C@H](N)Cc2ccc([N+](=O)[O-])cc2)CSSC[C@@H](C(=O)N[C@@H](Cc2ccc(O)cc2)C(N)=O)NC1=O (H-[dPhe(4-NO2)][dC]Y[dW]KVCY-NH2; disulfide 2-7) | 39 | 17.3 |  | 

Now from value to molecule:

IC50 (SSTR2) [nM] | Ki (SSTR2) [nM] | Yeast Assay Antagonist [1] | Yeast Assay Agonist [2] | Compound
6 | 2.8 | 4 | - | CC(=O)N[C@@H](Cc1ccc(I)cc1)C(=O)N[C@@H]1CSSC[C@@H](C(=O)N[C@H](Cc2ccc(O)cc2)C(N)=O)NC(=O)[C@H]([C@@H](C)O)NC(=O)[C@H](CCCCN)NC(=O)[C@@H](Cc2c[nH]c3ccccc23)NC(=O)[C@H](Cc2ccc(O)cc2)NC1=O
 |  | 1 | - | C[C@@H](O)[C@@H]1NC(=O)[C@H](CCCCN)NC(=O)[C@@H](Cc2c[nH]c3ccccc23)NC(=O)[C@H](Cc2ccc(O)cc2)NC(=O)[C@H](NC(=O)[C@@H](N)Cc2ccc3ccccc3c2)CSSC[C@@H](C(=O)N[C@@H](Cc2ccc(O)cc2)C(N)=O)NC1=O (H-[2Nal][dC]Y[dW]KTCY-NH2; disulfide 2-7 (inferred); N-terminus assumed)
 |  | 2 | - | C[C@@H](O)[C@@H]1NC(=O)[C@H](CCCNC(=N)N)NC(=O)[C@@H](Cc2c[nH]c3ccccc23)NC(=O)[C@H](Cc2ccc(O)cc2)NC(=O)[C@H](NC(=O)[C@@H](N)Cc2ccc([N+](=O)[O-])cc2)CSSC[C@@H](C(=O)N[C@@H](Cc2ccc(O)cc2)C(N)=O)NC1=O (H-[Phe(4-NO2)][dC]Y[dW]RTCY-NH2; disulfide 2-7 (inferred))
